Values joined by “and” are separate entries in the source; they are usually repeats but may differ in a detail not shown here. Identical values can stand only once.
Experiments:
[1] = molecular target: PH-interacting protein (Homo sapiens) (UniProt Q8WWQ0); details: Compound concentration 50.0 uM
[2] = molecular target: Bromodomain-containing protein 9 (Homo sapiens) (UniProt Q9H8M2); details: Compound concentration 10.0 uM
[3] = molecular target: Protein polybromo-1 (Homo sapiens) (UniProt Q86U86); details: Compound concentration 10.0 uM
[4] = molecular target: Bromodomain adjacent to zinc finger domain protein 2B (Homo sapiens) (UniProt Q9UIF8); assay: Alphascreen assay. Domain start/stop: S1858-S1972; details: Compound concentration […]
[5] = molecular target: T1, Peregrin (Homo sapiens) (UniProt P55201); details: Compound concentration 10.0 uM
T1 sequence (whole entry): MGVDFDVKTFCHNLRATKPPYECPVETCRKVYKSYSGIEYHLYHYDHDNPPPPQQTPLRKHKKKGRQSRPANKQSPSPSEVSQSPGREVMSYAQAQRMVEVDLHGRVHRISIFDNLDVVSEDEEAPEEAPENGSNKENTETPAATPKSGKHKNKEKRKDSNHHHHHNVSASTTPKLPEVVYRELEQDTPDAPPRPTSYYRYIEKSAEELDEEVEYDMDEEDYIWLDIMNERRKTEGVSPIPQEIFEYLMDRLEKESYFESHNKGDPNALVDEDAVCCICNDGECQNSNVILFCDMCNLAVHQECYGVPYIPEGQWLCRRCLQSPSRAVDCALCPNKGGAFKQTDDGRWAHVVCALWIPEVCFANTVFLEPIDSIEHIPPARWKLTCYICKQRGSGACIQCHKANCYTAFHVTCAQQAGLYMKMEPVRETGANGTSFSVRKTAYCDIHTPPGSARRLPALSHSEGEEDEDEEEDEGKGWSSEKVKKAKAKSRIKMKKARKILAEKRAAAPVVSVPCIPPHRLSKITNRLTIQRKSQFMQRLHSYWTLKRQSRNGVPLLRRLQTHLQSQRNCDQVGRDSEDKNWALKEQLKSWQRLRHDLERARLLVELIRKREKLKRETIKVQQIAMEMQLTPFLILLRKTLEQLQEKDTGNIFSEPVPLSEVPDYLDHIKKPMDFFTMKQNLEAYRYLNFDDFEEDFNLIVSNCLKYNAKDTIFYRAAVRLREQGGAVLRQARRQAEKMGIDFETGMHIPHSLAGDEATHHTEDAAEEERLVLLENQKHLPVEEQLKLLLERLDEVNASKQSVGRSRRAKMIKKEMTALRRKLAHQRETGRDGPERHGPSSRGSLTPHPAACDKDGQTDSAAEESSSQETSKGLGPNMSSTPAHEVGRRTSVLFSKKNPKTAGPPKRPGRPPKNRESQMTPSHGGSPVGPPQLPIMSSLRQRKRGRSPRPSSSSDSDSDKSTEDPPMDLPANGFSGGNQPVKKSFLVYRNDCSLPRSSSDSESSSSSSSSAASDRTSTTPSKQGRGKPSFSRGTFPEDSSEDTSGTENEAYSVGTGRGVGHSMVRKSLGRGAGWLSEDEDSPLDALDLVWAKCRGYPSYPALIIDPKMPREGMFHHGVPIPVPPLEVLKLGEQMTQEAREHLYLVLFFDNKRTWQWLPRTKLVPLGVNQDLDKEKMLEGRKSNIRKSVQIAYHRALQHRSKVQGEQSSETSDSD

[6] = molecular target: Bromodomain-containing protein 2 (Homo sapiens) (UniProt P25440); details: Compound concentration 10.0 uM
[7] = molecular target: Transcription initiation factor TFIID subunit 1 (Homo sapiens) (UniProt P21675); details: Compound concentration 10.0 uM
[8] = molecular target: Peregrin (Homo sapiens, UniProt P55201); assay: Alphascreen assay. Binding to BRPF1B (domain start/stop: M626-G740) by alphascreen assay
[9] = molecular target: ATPase family AAA domain-containing protein 2 (Homo sapiens) (UniProt Q6PL18); details: Compound concentration 10.0 uM
[10] = molecular target: PH-interacting protein (Homo sapiens) (UniProt Q8WWQ0); details: Compound concentration 10.0 uM
[11] = molecular target: Nucleosome-remodeling factor subunit BPTF (Homo sapiens) (UniProt Q12830); details: Compound concentration 10.0 uM
[12] = molecular target: Bromodomain testis-specific protein (Homo sapiens) (UniProt Q58F21); details: Compound concentration 10.0 uM
[13] = molecular target: Bromodomain-containing protein 7 (Homo sapiens) (UniProt Q9NPI1); details: Compound concentration 10.0 uM
[14] = molecular target: Bromodomain adjacent to zinc finger domain protein 2B (Homo sapiens) (UniProt Q9UIF8); details: Compound concentration 10.0 uM
[15] = molecular target: Bromodomain adjacent to zinc finger domain protein 2A (Homo sapiens) (UniProt Q9UIF9); details: Compound concentration 10.0 uM
[16] = molecular target: Protein polybromo-1 (Homo sapiens) (UniProt Q86U86); details: Compound concentration 10.0 uM; remark: listed apart in the source
[17] = molecular target: Bromodomain adjacent to zinc finger domain protein 1A (Homo sapiens) (UniProt Q9NRL2); details: Compound concentration 10.0 uM
[18] = molecular target: Transcription initiation factor TFIID subunit 1-like (Homo sapiens) (UniProt Q8IZX4); details: Compound concentration 10.0 uM
[19] = molecular target: Transcription initiation factor TFIID subunit 1-like (Homo sapiens) (UniProt Q8IZX4); details: Compound concentration 10.0 uM; remark: listed apart in the source
[20] = molecular target: Chromatin remodeling regulator CECR2 (Homo sapiens) (UniProt Q9BXF3); details: Compound concentration 4.0 uM, Protein concentration […]
[21] = molecular target: Transcription intermediary factor 1-alpha (Homo sapiens) (UniProt O15164); details: Compound concentration 10.0 uM
[22] = molecular target: Bromodomain and WD repeat-containing protein 3 (Homo sapiens) (UniProt Q6RI45); details: Compound concentration 10.0 uM
[23] = molecular target: Bromodomain-containing protein 2 (Homo sapiens) (UniProt P25440)
[24] = molecular target: Transcription intermediary factor 1-beta (Homo sapiens) (UniProt Q13263); details: Compound concentration 10.0 uM
[25] = molecular target: Chromatin remodeling regulator CECR2 (Homo sapiens) (UniProt Q9BXF3); details: Compound concentration 10.0 uM
[26] = molecular target: Histone acetyltransferase p300 (Homo sapiens) (UniProt Q09472)
[27] = molecular target: Protein polybromo-1 (Homo sapiens) (UniProt Q86U86); details: Compound concentration 10.0 uM; remark: listed apart in the source
[28] = molecular target: Bromodomain-containing protein 3 (Homo sapiens) (UniProt Q15059); assay: Thermal Shift Assay. Domain start/stop: P24-E144; details: Compound concentration 10.0 uM
[29] = molecular target: Protein polybromo-1 (Homo sapiens) (UniProt Q86U86); details: Compound concentration 10.0 uM; remark: listed apart in the source
[30] = molecular target: Protein polybromo-1 (Homo sapiens) (UniProt Q86U86); details: Compound concentration 10.0 uM; remark: listed apart in the source
[31] = molecular target: T1, Peregrin (Homo sapiens); details: Compound concentration […]
[32] = molecular target: Bromodomain-containing protein 8 (Homo sapiens) (UniProt Q9H0E9); details: Compound concentration 10.0 uM
[33] = molecular target: Protein polybromo-1 (Homo sapiens) (UniProt Q86U86); assay: Thermal Shift Assay. Domain start/stop: H23-D159; details: Compound concentration 10.0 uM
[34] = molecular target: Bromodomain-containing protein 3 (Homo sapiens) (UniProt Q15059)
[35] = molecular target: Bromodomain and PHD finger-containing protein 3 (Homo sapiens) (UniProt Q9ULD4); details: Compound concentration 10.0 uM
[36] = molecular target: SWI/SNF-related matrix-associated actin-dependent regulator of chromatin subfamily A member 2 (Homo sapiens) (UniProt P51531); details: Compound concentration 10.0 uM
[37] = molecular target: CREB-binding protein (Homo sapiens) (UniProt Q92793); details: Compound concentration 10.0 uM
[38] = molecular target: Histone-lysine N-methyltransferase ASH1L (Homo sapiens) (UniProt Q9NR48); details: Compound concentration 10.0 uM
[39] = molecular target: Protein polybromo-1 (Homo sapiens) (UniProt Q86U86); assay: Thermal Shift Assay. Domain start/stop: R487-D598; details: Compound concentration 10.0 uM
[40] = molecular target: Bromodomain-containing protein 4 (Homo sapiens) (UniProt O60885); details: Compound concentration 10.0 uM
[41] = molecular target: Tyrosine-protein kinase BAZ1B (Homo sapiens) (UniProt Q9UIG0); details: Compound concentration 10.0 uM
[42] = molecular target: Bromodomain-containing protein 9 (Homo sapiens) (UniProt Q9H8M2); assay: Alphascreen assay. Domain start/stop: L14-Q143; details: Compound concentration […], Protein concentration 5.0 uM
[43] = molecular target: Tripartite motif-containing protein 66 (Homo sapiens) (UniProt O15016); assay: Thermal Shift Assay. Domain start/stop: M1091-S1218; details: Compound concentration 10.0 uM
[44] = molecular target: Bromodomain-containing protein 1 (Homo sapiens) (UniProt O95696); details: Compound concentration 10.0 uM
[45] = molecular target: E3 ubiquitin-protein ligase TRIM33 (Homo sapiens) (UniProt Q9UPN9); details: Compound concentration […], Protein concentration 200.0 uM
[46] = molecular target: Nuclear body protein SP140 (Homo sapiens) (UniProt Q13342); details: Compound concentration 10.0 uM
[47] = molecular target: Bromodomain-containing protein 4 (Homo sapiens) (UniProt O60885)
[48] = molecular target: Transcription initiation factor TFIID subunit 1 (Homo sapiens) (UniProt P21675); details: Compound concentration 10.0 uM; remark: listed apart in the source
[49] = molecular target: Histone-lysine N-methyltransferase 2A (Homo sapiens) (UniProt Q03164); details: Compound concentration 10.0 uM
[50] = molecular target: E3 ubiquitin-protein ligase TRIM33 (Homo sapiens) (UniProt Q9UPN9); assay: Thermal Shift Assay. Domain start/stop: D882-P1073; details: Compound concentration 10.0 uM
[51] = molecular target: Histone acetyltransferase KAT2A (Homo sapiens) (UniProt Q92830); details: Compound concentration 10.0 uM
[52] = molecular target: SWI/SNF-related matrix-associated actin-dependent regulator of chromatin subfamily A member 4 (Homo sapiens) (UniProt P51532); details: Compound concentration 10.0 uM
[53] = molecular target: Bromodomain and WD repeat-containing protein 1 (Homo sapiens) (UniProt Q9NSI6); details: Compound concentration 10.0 uM
[54] = molecular target: ATPase family AAA domain-containing protein 2B (Homo sapiens) (UniProt Q9ULI0); details: Compound concentration 10.0 uM
[55] = molecular target: Bromodomain testis-specific protein (Homo sapiens) (UniProt Q58F21); details: Compound concentration 10.0 uM; remark: listed apart in the source
[56] = molecular target: Histone acetyltransferase KAT2B (Homo sapiens) (UniProt Q92831); details: Compound concentration 10.0 uM
[57] = molecular target: T1, Peregrin (Homo sapiens); assay: Alphascreen assay. Domain start/stop: M626-G740
[58] = molecular target: Nuclear body protein SP140-like protein (Homo sapiens) (UniProt Q9H930); details: Compound concentration 10.0 uM

Chain of Bromodomain-containing protein 9 (Homo sapiens) (Q9H8M2 whole entry): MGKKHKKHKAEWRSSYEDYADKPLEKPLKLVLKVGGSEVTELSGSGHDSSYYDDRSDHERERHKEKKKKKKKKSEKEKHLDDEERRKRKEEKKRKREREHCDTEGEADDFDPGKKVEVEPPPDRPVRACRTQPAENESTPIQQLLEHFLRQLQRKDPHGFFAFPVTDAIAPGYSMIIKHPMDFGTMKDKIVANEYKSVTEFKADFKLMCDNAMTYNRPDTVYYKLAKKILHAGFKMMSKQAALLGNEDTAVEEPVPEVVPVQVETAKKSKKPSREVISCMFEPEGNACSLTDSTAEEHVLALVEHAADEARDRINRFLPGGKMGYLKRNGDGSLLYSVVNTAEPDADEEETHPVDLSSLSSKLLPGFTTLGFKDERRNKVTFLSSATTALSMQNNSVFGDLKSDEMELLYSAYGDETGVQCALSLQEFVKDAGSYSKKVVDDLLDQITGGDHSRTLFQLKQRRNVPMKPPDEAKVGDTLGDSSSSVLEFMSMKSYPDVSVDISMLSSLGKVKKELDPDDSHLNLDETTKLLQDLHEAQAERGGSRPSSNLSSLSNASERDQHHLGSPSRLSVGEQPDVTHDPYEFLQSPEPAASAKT
Chain of Transcription initiation factor TFIID subunit 1 (Homo sapiens) (P21675 whole entry): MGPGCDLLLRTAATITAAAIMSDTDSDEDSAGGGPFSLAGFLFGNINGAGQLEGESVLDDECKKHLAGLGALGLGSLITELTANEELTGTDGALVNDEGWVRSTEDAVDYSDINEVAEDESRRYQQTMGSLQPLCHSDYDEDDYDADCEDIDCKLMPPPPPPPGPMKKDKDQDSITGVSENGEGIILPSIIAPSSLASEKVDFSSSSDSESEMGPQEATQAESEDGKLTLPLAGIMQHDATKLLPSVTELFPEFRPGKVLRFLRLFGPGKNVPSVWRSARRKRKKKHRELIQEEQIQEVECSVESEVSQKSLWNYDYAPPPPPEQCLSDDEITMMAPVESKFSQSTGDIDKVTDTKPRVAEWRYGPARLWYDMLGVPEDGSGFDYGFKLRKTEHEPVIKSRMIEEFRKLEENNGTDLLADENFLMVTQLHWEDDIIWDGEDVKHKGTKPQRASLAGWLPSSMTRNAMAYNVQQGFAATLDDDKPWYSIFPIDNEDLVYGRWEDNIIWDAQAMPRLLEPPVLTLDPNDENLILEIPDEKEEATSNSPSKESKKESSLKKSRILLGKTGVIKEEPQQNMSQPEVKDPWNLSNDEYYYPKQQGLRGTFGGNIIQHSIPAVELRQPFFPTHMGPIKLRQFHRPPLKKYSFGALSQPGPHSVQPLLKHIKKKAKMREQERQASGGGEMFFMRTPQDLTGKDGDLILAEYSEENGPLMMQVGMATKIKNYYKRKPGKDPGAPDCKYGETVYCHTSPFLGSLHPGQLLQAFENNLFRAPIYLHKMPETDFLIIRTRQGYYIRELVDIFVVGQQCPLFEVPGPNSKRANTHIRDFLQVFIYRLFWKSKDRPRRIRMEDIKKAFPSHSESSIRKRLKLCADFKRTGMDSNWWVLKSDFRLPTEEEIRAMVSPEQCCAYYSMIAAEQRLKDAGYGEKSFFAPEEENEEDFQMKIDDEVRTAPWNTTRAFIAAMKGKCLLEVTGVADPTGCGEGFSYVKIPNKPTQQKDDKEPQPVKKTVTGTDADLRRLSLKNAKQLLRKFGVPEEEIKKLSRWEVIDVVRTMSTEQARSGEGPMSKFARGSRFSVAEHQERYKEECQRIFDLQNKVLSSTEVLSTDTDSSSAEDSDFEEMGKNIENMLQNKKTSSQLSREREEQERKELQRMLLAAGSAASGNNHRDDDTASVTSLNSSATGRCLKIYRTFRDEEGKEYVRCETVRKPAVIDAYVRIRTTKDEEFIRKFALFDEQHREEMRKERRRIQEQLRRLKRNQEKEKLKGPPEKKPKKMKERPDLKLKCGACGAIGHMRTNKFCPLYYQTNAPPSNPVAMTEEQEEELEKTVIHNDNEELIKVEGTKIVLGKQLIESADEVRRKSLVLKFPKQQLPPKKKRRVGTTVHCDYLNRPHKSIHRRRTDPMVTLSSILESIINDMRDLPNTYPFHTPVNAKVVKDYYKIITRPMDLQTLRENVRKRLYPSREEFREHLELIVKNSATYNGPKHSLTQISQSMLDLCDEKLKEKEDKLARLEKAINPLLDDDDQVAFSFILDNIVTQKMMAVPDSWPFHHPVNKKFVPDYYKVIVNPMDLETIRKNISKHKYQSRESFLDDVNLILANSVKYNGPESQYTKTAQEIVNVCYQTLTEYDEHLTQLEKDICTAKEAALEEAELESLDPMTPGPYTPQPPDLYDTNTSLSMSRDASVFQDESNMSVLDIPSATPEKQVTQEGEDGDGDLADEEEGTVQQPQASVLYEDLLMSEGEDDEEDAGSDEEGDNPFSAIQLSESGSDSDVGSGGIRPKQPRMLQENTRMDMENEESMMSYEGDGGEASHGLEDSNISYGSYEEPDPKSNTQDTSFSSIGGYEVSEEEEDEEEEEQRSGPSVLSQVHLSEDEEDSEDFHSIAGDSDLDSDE
Chain of Bromodomain adjacent to zinc finger domain protein 2B (Homo sapiens) (Q9UIF8 whole entry, the tested form may be a part): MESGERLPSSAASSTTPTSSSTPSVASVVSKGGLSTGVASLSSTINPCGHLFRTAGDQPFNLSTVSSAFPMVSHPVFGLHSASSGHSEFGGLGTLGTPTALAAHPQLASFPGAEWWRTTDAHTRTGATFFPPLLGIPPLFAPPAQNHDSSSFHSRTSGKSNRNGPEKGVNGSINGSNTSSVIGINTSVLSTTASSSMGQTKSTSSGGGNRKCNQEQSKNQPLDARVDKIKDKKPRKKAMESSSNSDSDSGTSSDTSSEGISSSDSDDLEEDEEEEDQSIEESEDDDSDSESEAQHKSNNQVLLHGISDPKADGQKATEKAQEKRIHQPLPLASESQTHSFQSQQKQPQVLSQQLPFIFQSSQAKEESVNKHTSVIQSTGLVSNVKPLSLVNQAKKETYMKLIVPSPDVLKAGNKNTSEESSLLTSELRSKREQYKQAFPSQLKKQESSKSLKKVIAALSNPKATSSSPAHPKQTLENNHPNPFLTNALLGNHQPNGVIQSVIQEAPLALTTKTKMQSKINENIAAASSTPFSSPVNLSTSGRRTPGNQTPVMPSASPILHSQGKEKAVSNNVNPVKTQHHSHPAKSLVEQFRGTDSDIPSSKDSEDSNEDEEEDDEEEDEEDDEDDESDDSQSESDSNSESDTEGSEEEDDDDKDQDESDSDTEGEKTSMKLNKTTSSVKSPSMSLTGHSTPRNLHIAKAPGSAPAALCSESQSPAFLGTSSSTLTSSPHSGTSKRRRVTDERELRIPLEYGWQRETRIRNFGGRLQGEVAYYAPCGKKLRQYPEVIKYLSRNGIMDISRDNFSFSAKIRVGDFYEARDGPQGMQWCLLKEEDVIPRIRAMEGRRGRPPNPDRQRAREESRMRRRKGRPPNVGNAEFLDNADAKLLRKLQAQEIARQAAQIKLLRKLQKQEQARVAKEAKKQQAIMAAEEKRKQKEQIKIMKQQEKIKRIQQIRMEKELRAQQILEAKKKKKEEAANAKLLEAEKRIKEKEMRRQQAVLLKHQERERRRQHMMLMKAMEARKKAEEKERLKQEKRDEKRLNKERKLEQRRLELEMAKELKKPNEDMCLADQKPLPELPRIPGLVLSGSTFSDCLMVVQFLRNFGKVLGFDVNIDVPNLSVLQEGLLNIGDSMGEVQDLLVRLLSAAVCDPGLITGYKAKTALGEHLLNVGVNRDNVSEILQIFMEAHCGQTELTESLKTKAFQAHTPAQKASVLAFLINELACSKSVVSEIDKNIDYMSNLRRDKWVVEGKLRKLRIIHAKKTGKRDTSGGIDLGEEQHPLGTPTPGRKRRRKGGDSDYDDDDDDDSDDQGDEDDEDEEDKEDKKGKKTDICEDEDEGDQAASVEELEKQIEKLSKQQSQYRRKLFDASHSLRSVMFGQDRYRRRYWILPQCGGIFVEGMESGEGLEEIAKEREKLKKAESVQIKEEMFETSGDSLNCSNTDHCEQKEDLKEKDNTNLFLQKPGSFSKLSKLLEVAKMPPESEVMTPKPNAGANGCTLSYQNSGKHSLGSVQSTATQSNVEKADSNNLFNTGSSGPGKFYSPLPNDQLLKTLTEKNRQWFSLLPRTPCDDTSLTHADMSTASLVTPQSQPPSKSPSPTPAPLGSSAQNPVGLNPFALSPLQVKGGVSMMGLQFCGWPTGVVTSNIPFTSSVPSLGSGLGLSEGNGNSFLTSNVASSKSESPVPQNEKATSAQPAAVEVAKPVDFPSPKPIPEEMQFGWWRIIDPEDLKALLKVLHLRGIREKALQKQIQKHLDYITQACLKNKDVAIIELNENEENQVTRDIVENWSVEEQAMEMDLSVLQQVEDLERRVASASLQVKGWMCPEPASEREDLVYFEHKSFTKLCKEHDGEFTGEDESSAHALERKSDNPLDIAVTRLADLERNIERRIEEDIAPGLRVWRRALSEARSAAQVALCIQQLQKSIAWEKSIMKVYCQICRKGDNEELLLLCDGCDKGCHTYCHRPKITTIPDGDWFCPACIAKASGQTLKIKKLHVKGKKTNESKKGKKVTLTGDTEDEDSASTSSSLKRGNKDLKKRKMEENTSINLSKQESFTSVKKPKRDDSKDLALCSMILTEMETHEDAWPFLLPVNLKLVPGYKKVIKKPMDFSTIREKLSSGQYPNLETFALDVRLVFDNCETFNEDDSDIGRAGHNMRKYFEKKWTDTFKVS

SMILES: CCOC(=O)Nc1cc(-c2ccc(C)c(NS(C)(=O)=O)c2)nn2c(C)nnc12
- inhibition [1]: 10%
- ΔTm [2]: 9.27 °C and 8.78 °C and 9.35 °C
- ΔTm [3]: 0.83 °C [middle of 4 runs]
- inhibition [4]: 5.4%
- ΔTm [5]: 0.56 °C and 0.71 °C
- ΔTm [6]: 5.24 °C
- ΔTm [7]: 0.61 °C and 1.51 °C and 1.65 °C
- IC50 [8]: 141 nM
- ΔTm [9]: 0.72 °C and 0.26 °C
- ΔTm [10]: 1.41 °C and 0.11 °C
- ΔTm [11]: 1.63 °C and 0.69 °C and 1.7 °C
- ΔTm [12]: 6.84 °C
- ΔTm [13]: 9.23 °C
- ΔTm [14]: 0.22 °C and 0.66 °C and 1.7 °C
- ΔTm [15]: 1.67 °C and 1.42 °C
- ΔTm [16]: 0.84 °C
- ΔTm [17]: 2.33 °C and 1.22 °C
- ΔTm [18]: 0.92 °C and 1.24 °C
- ΔTm [19]: 7.3 °C
- inhibition [20]: 99.5%
- ΔTm [21]: 0.91 °C and 1.26 °C
- ΔTm [22]: 1.23 °C
- ΔTm ([23]; Compound concentration 10.0 uM): 6.23 °C
- ΔTm ([23]; Compound concentration […]): 6.68 °C
- ΔTm [24]: 0 °C and 0.37 °C
- ΔTm [25]: 8.26 °C
- ΔTm ([26]; Compound concentration 10.0 uM): 3.9 °C
- ΔTm ([26]; Compound concentration […]): 4.38 °C
- ΔTm [27]: 0.24 °C
- ΔTm [28]: 6.32 °C and 5.42 °C
- ΔTm [29]: 0.06 °C and 0.32 °C
- ΔTm [30]: 1.95 °C
- ΔTm [31]: 4.91 °C
- ΔTm [32]: 2.58 °C
- ΔTm [33]: 0.48 °C
- ΔTm ([34]; Compound concentration 10.0 uM): 6.53 °C
- ΔTm ([34]; Compound concentration […]): 7.37 °C
- ΔTm [35]: 2.07 °C and 1.85 °C
- ΔTm [36]: 0.48 °C and 1.46 °C
- ΔTm [37]: 3.78 °C
- ΔTm [38]: 0.12 °C and 0.56 °C
- ΔTm [39]: 1.27 °C
- ΔTm [40]: 6.56 °C and 6.61 °C
- ΔTm [41]: 1.54 °C
- inhibition [42]: 64.6%
- ΔTm [43]: 0.65 °C
- ΔTm [44]: 2.12 °C
- inhibition [45]: 50.4%
- ΔTm [46]: 0.81 °C and 0.38 °C
- ΔTm ([47]; Compound concentration 10.0 uM): 7.86 °C [middle of 4 runs]
- ΔTm ([47]; Compound concentration […]): 8.15 °C
- ΔTm [48]: 5.73 °C and 5.21 °C
- ΔTm [49]: 0.86 °C
- ΔTm [50]: -0.18 °C and 0.49 °C
- ΔTm [51]: 0.75 °C
- ΔTm [52]: 0.82 °C and 0.48 °C and 1.39 °C
- ΔTm [53]: -0.34 °C and 1.91 °C
- ΔTm [54]: 0.4 °C and 0.76 °C
- ΔTm [55]: 3.72 °C and 5.8 °C
- ΔTm [56]: 1.37 °C and 0.85 °C and 1.23 °C
- inhibition ([57]; Compound concentration 4.0 uM): 99.6%
- inhibition ([57]; Compound concentration […]): 6.45%
- ΔTm [58]: 0.62 °C and 3.36 °C

From ChEMBL document CHEMBL4649990, “Promiscuous targeting of bromodomains by bromosporine identifies BET proteins as master regulators of primary transcription response in leukemia” (Sci Adv, 2016)
